Publication PMC7507342, “A Cell‐Free Platform Based on Nisin Biosynthesis for Discovering Novel Lanthipeptides and Guiding their Overproduction In Vivo” (Advanced Science, 2020)
Non-standard residues stand in square brackets, D forms with d. No end group written: not given here. Dhb = C/C=C(\N)C(=O)O; Dha = C=C(N)C(=O)O

Legend:
M. luteus = assay: MIC determination in 96-well plates; type: cell-based, Micrococcus luteus; settings: for MIC M. luteus: 96-well plate, bioassay medium, 5.0 × 10^5 CFU mL^−1, 37 °C, 24 h, OD600, n=3
Text: (§1) The CFPS system is for quick screening of potential antimicrobial lanthipeptides, and we then purified enough compounds of the screened nisin analogs for structure identification and activity assays. We prepared mLanAs for the novel lanthipeptides (RL6, RL8, RL13, and RL14) in E. coli (Table S2, Supporting Information) and removed their leader peptides in vitro, as it is more economical to mass produce targeted lanthipeptides using this previously reported method^[ ^4 ^] rather than to use CFPS to mass produce lanthipeptides. Nisin and most lanthipeptides are not pure products in the commercially available and standard products, they are a mixture of different dehydrating ingredients resulting from incomplete NisB catalysis. Therefore, we verified that the decisive antibacterial component in the currently commercially available nisin is the eightfold dehydrated component (Figure S5, Supporting Information). […] We treated the novel lanthipeptides with the thiol‐alkylating reagent N‐ethylmaleimide (NEM) to sequester any noncyclic Cys residues, and evaluated ring topology using LC‐MS (Figure S7, Supporting Information). […] We quantified these four novel lanthipeptides using the purified eight‐fold dehydrated component of nisin as a standard.
(§2) MICs were determined according to a previously described method^[ ^38 ^] with minor modifications. Briefly, the test medium for clinical strain species was MHB broth (BD Difco), LB broth was used for E. coli, and bioassay medium containing 1.2% tryptone, 0.75% yeast extract, 0.75% NaCl, 0.3% NaH2PO4, and 0.75% glucose was used for M. luteus. Bacteria were grown overnight to the early stationary phase and adjusted in corresponding culture medium to 5.0 × 10^5 CFU mL^−1 in the wells of 96‐well microtiter plates, mixed with varying concentrations of test compounds, and incubated at 37 °C for 24 h. Cell growth was evaluated by measuring the optical density at 600 nm, and the MIC was defined as the lowest compound concentration at which no bacterial growth was observed.
(§3) Table S3. MIC Values of Several Lanthipeptides Against Microorganisms
(§4) MIC* mg/L(μM) M. luteus E. faecalis S. aureus MRSA
(§5) Note: * The test lanthipeptide is a mixture of different dehydration molecules . Quantification of
(§6) lanthipeptides was performed using the eight-fold dehydrated molecules (n=3). The data

[1] = system: S. aureus (clinical pathogenic strain); assay: MIC determination in 96-well plates; type: cell-based, Staphylococcus aureus; settings: 96-well plate, MHB broth, 5.0 × 10^5 CFU mL^−1, 37 °C, 24 h, OD600, quantified as eight-fold dehydrated molecules, n=3
Text: as §1, §2, §3, §4, §5, §6

[2] = system: MRSA (clinical pathogenic strain); assay: MIC determination in 96-well plates; type: cell-based, methicillin‐resistant S. aureus; settings: 96-well plate, MHB broth, 5.0 × 10^5 CFU mL^−1, 37 °C, 24 h, OD600, quantified as eight-fold dehydrated molecules, n=3
Text: as §1, §2, §3, §4, §5, §6

[3] = system: E. faecalis (clinical pathogenic strain); assay: MIC determination in 96-well plates; type: cell-based, Enterococcus faecalis; settings: for MIC E. faecalis: 96-well plate, MHB broth, 5.0 × 10^5 CFU mL^−1, 37 °C, 24 h, OD600, quantified as eight-fold dehydrated molecules, n=3
Text: as §1, §2, §3, §4, §5, §6

E. coli DH5α = E. coli DH5α growth (OD600) in LB medium with EDTA and purified lanthipeptide; type: cell-based, Escherichia coli
Protocol: Figure 4 Screening of nisin mutants using the CFPS system. A) Schematic illustration of the screening for nisin mutants. B) Nisin and nisin mutants. Dha, dehydrolalanine; Dhb, dehydrobutyrine; Abu, 2‐aminobutyric acid. C) Heat‐map of antimicrobial activity of nisin mutants against E. coli in the second round of screening. After adding the CFPS mixture to E. coli and incubating for 8 h, the ΔOD600 value represents the OD600 of E. coli with added nisin mutant CFPS mixture minus the OD600 (control group) of E. coli with nisin CFPS mixture in the same plate. Yellow areas represent an inhibitory effect on E. coli. […] The test lanthipeptide is a mixture of different dehydration molecules, quantification of lanthipeptides was performed using the eightfold dehydrated molecules. […]
Next, to verify the reliability of the CFPS platform for screening, abundant lanthipeptides are required to characterize the structure and anti‐E. coli ability of the mutants. […] The structures were identified by LC‐MS‐MS (Figure 4B; Figure S6, Supporting Information) and the […] rings were detected by NEM reaction (Figure S7, Supporting Information). […]
Figure S8. OD600 of E. coli DH5α in LB Medium with Different Concentrations of EDTA and Nisin after 18 h of Co-culture (n=3) ΔOD600 indicates the difference between readings with different concentrations of blank media. […]

[4] = system: Micrococcus luteus NCIB 8166; assay: Agar diffusion bioassay of CFPS mixture; type: cell-based; settings: agar diffusion method; CFPS reaction 6 h
Protocol: We evaluated the performance of our CFPS platform for nisin biosynthesis. Each plasmid (0.5 nmol L^−1) (pJL1‐nisZ, pET28a‐nisB, pET28a‐nisC, and pET28a‐nisP) was added into the CFPS platform and incubated for 6 h (Figure 1A). The 400 µL of reaction mixture was concentrated to 20 µL and the concentrated mixture was then detected by tandem mass spectrometry (LC‐MS‐MS). The results confirmed that fully modified nisin Z was produced in the CFPS mixture (Figure 1B).
These hybrid precursor peptides were then cloned into the pJL1 plasmid. Bagelicin, a nisin analog with antibacterial activity that was identified using a previously described in vivo screening system,^[ ^5 ^] was chosen as the positive control for validation. The pJL1‐nisZ plasmid in our CFPS platform was replaced with the hybrid precursor peptide plasmids (pRL1‐pRL18 and pJL1‐bagelicin). After incubation for 6 h, the bagelicin CFPS mixture (positive control) was analyzed by LC‐MS‐MS and bioassays.
The activity levels of nisin and new lanthipeptides were determined by a previously described agar diffusion method, with minor modifications.^[ ^37 ^] Briefly, a stock nisin solution 1000 IU mL^−1) was prepared by adding 50 mg of commercial nisin (10^6 IU g^−1; Sigma‐Aldrich, St. Louis, MO, USA) into 50 mL of sterile 0.02 mol L^−1 HCl. […]

[5] = mixture of dehydration molecules quantified as eight-fold dehydrated molecules
[6] = summary of Table S3 in the text
[7] = value in parentheses, quantified as eight-fold dehydrated molecules

| Substance | MIC M. luteus (M. luteus; [5]) | antibacterial activity against M. luteus (in words) (M. luteus; [6]) | MIC M. luteus (M. luteus; [7]) | MIC S. aureus [1] | MIC S. aureus ([1]; value in parentheses) | MIC MRSA [2] | MIC MRSA ([2]; value in parentheses) | MIC E. faecalis [3] | antibacterial activity against E. faecalis (in words) [3, 6] | MIC E. faecalis ([3]; value in parentheses) | inhibition of E. coli DH5α growth with EDTA (OD600) (E. coli DH5α; 320 μM EDTA, nisin Z 24, 48, 96 μM, 18 h co-culture, n=3 (Figure S8)) | inhibition of E. coli DH5α growth at 20-fold the reported nisin concentration (E. coli DH5α; 18 h co-culture (Figure S8)) | antibacterial activity of CFPS mixture on M. luteus plate (in words) [4] |
| --- | --- | --- | --- | --- | --- | --- | --- | --- | --- | --- | --- | --- | --- |
| IT SKSLC TPGCVTGVLMGCALKTIT CNC SVGIGKK (bicyclic or more) [RL14, novel lanthipeptide, nisin analog, core peptide from Enterococcus rotai/Enterococcus moraviensis] | 0.015 µg/mL | outperforming nisin | 0.0045 µM | 250 µg/mL | 74.75 µM | 250 µg/mL | 74.75 µM | 62.5 µg/mL | outperforming nisin | 18.69 µM | – | – | – |
| IT SKSLC TPGCKTGALMT CPIKTAT CGCHFGN (bicyclic or more) [RL13, novel lanthipeptide, nisin analog, core peptide from Streptococcus equinus] | 0.24 µg/mL | – | 0.077 µM | > 250 µg/mL | > 80.8 µM | > 250 µg/mL | > 80.8 µM | 250 µg/mL | – | 80.8 µM | – | – | – |
| Nisin Z: type I lanthipeptide nisin Z, synthesized by CFPS or from mLanA expressed in E. coli (I[Dhb]SI[Dha]LCTPGCKTGALMGCNMKTATCNCSIHV[Dha]K; cysteine pairing not given here; also: lanthipeptide thioether crosslinks and dehydrated residues, positions not given here; UniProt P29559 24-57, looked up) [reference compound] | 0.12 µg/mL | – | 0.036 µM | 250 µg/mL | 75.05 µM | 125 µg/mL | 37.52 µM | 250 µg/mL | – | 75.05 µM | obvious | did not exhibit | obvious zone of inhibition |
| Nisin A: commercialized nisin, class I lanthipeptide, food preservative (I[Dhb]SI[Dha]LCTPGCKTGALMGCNMKTATCHCSIHV[Dha]K; cysteine pairing not given here; also: lanthipeptide thioether crosslinks and dehydrated residues, positions not given here; UniProt P13068 24-57, looked up) [reference compound] | 0.06 µg/mL | – | 0.018 µM | 125 µg/mL | 37.27 µM | 125 µg/mL | 37.27 µM | 250 µg/mL | – | 74.53 µM | – | – | – |
| VT SISLC TPGCKTGILMT CAIKTAT CGCHF [Bagelicin] | – | – | – | – | – | – | – | – | – | – | – | – | contained anti‐M. luteus activity |
| VT SKSLC TPGCKTGILQT CAIKSAT CGC SIHIGK (bicyclic or more) [RL8, novel lanthipeptide, nisin analog, core peptide from Bacillus cereus] | 0.24 µg/mL | – | 0.073 µM | > 250 µg/mL | > 76.52 µM | > 250 µg/mL | > 76.52 µM | 250 µg/mL | – | 76.52 µM | – | – | – |
| IT SVSLC TPGCKTGALMGCNMKTAS CGCHVHVSK (bicyclic or more) [RL6, novel lanthipeptide, nisin analog, core peptide from Leuconostoc gelidum] | 0.12 µg/mL | – | 0.037 µM | > 250 µg/mL | > 76.17 µM | > 250 µg/mL | > 76.17 µM | 250 µg/mL | – | 76.17 µM | – | – | – |
